According to patent US8802702B2, “Compounds for reducing drug resistance and uses thereof” (The General Hospital Corporation, priority 2009, dated 2014):
Read-outs that look alike come from different tables or passages of the source.

Tests used:
Format in all cases: cell-based, human
OVCAR8TR cells = assay: Reversal of drug resistance, cytotoxicity (MTT) assay in OVCAR8TR; conditions: Paclitaxel
Method: FIGS. 1 (a-b) are graphs that depict the effects of NSC23925 on drug sensitivity in ovarian cancer cells; 1(a) depicts the effects of NSC23925 on sensitive (SKOV-3) and resistant (SKOV-3TR) cells; 1(b) depicts the effects of NSC23925 on sensitive (OVCAR8) and resistant (OVCAR8TR) cells. Cells were treated with the paclitaxel and NSC23925 in RPMI1640 complete media at the indicated concentrations. The relative sensitivity of each line to paclitaxel was determined by MTT assay, as described below in the Examples section, 6 days post treatment. A: Reversal of paclitaxel resistance by NSC23925 in SKOV-3TR cells. B: Reversal of paclitaxel resistance by NSC23925 in OVCAR8TR cells.
(§1) Drug cytotoxicity was assessed in vitro using the MTT assay. SKOV-3 and SKOV-3TR cells were used herein. Briefly, 2×10^3 cells per well were plated in 96-well plates in culture medium (RPMI 1640 supplemented with 10% fetal bovine serum and penicillin/streptomycin) containing increasing concentrations of drug. After 7 days of culture, 10 μl MTT (5 mg/ml in PBS, obtained from Sigma) were added to each well and the plates were incubated for 4 h. The resulting formazan product was dissolved with acid-isopropanol and the absorbance at a wavelength of 490 nm (A490) was read on a SPECTRAmax® Microplate Spectrophotometer (Molecular Devices, Sunnyvale, Calif.). The absorbance values were normalized by assigning the value of the control line in the medium without drug to 1.0 and the value of the no cell control to 0. Experiments were performed in triplicate.

KHOSR2 cells = assay: Reversal of drug resistance, cytotoxicity assay in KHOSR2; conditions: for IC50: Homo sapiens
[1] = test system: MCF-7 MX cells (express BCRP, not Pgp1); assay: Reversal of drug resistance in non-Pgp1 MDR cells expressing BCRP
Excerpt: Dr. Efstathios Gonos (Institute of Biological Research & Biotechnology, Athens, Greece) provided the doxorubicin resistant U-2OS R2 (referred in the text below as U-2OSDR), KHOS R2 cell lines. Dr. Stephen. Howell (The University of California Medical Center, San Diego) provided the cisplatin-resistant ovarian cancer IGROV1cp and 2008 cp70 cell lines. Dr. Erasmus Schneider (Wadsworth Center, Albany) provided the mitoxantrane resistant breast cancer MCF-7/MX cell line. Dr. Katia Scotlandi (Institute Orthopedics Rizzoli, Italy) provided ET-743 resistant TC-ET 6 nM and TC-ET 12 nM cell lines.

[2] = test system: SKOV-3 and SKOV-3TR cells; assay: Cytotoxicity of NSC23925 alone (MTT assay), SKOV-3/SKOV-3TR
Method: as §1, with “Drug cytotoxicity was determined by MTT assay. […] Cells were treated with the NSC23925 in RPMI1640 complete media at the indicated concentrations. The relative sensitivity of each line to NSC23925 was determined by MTT assay. A: Nonspecific toxicity of NSC23925 on SKOV3 vs SKOV-3TR. B: Nonspecific toxicity of NSC23925 on OVCAR8 vs OVCAR8TR. Drug” for “Drug”, “After 7 days of culture, 10 μl MTT (5 mg/ml in PBS, obtained from Sigma) were added to each well and the plates were incubated for 4 h.” left out

[3] = test system: Pgp1 expression in SKOV-3TR cells; assay: Pgp1 expression by Western blot; conditions: NSC23925 up to 10 μM for 48 h

COc1ccc(-c2cc(C(O)C3CCCCN3)c3ccccc3n2)cc1 (stereo not drawn) [NSC23925, (2-(4-methoxyphenyl)quinolin-4-yl)(piperidin-2-yl)methanol]
IC50 (OVCAR8TR cells; Homo sapiens, add NSC23925 0.1 μM, read-out: OVCAR8TR IC50 of Paclitaxel): 127 ± 27 nM
fold-reversal of drug resistance, OVCAR8TR (OVCAR8TR cells; add NSC23925 0.5 μM): (4.7) fold
fold-reversal of drug resistance, KHOSR2 (KHOSR2 cells; Doxorubicin, add NSC23925 0.1 μM): (1.4) fold
fold-reversal of drug resistance, KHOSR2 (KHOSR2 cells; Doxorubicin, add NSC23925 0.5 μM): (8.6) fold
fold-reversal of drug resistance, KHOSR2 (KHOSR2 cells; Doxorubicin, add NSC23925 1 μM): (35) fold
fold-reversal of drug resistance, KHOSR2 (KHOSR2 cells; ET-743, add NSC23925 0.1 μM): (1.2) fold
fold-reversal of drug resistance, KHOSR2 (KHOSR2 cells; ET-743, add NSC23925 0.5 μM): (2.1) fold
fold-reversal of drug resistance, KHOSR2 (KHOSR2 cells; ET-743, add NSC23925 1 μM): (3.2) fold
IC50 (KHOSR2 cells; Doxorubicin, add NSC23925 0.1 μM, read-out: KHOSR2 IC50 of Doxorubicin): 7360 ± 336 nM
IC50 (KHOSR2 cells; Doxorubicin, add NSC23925 0.5 μM, read-out: KHOSR2 IC50 of Doxorubicin): 1200 ± 461 nM
IC50 (KHOSR2 cells; Doxorubicin, add NSC23925 1 μM, read-out: KHOSR2 IC50 of Doxorubicin): 292 ± 210 nM
IC50 (KHOSR2 cells; ET-743, add NSC23925 0.1 μM, read-out: KHOSR2 IC50 of ET-743): 145 ± 45 nM
IC50 (KHOSR2 cells; ET-743, add NSC23925 0.5 μM, read-out: KHOSR2 IC50 of ET-743): 83 ± 39 nM
IC50 (KHOSR2 cells; ET-743, add NSC23925 1 μM, read-out: KHOSR2 IC50 of ET-743): 54 ± 34 nM
IC50 (KHOSR2 cells; PM00104, add NSC23925 0.1 μM, read-out: KHOSR2 IC50 of PM00104): 113 ± 38 nM
IC50 (KHOSR2 cells; PM00104, add NSC23925 0.5 μM, read-out: KHOSR2 IC50 of PM00104): 26 ± 14 nM
IC50 (KHOSR2 cells; PM00104, add NSC23925 1 μM, read-out: KHOSR2 IC50 of PM00104): 8 ± 16 nM
IC50 (KHOSR2 cells; Paclitaxel, add NSC23925 0.1 μM, read-out: KHOSR2 IC50 of Paclitaxel): 160 ± 16 nM
IC50 (KHOSR2 cells; Paclitaxel, add NSC23925 0.5 μM, read-out: KHOSR2 IC50 of Paclitaxel): 120 ± 32 nM
IC50 (KHOSR2 cells; Paclitaxel, add NSC23925 1 μM, read-out: KHOSR2 IC50 of Paclitaxel): 60 ± 20 nM
fold-reversal of drug resistance, KHOSR2 (KHOSR2 cells; PM00104, add NSC23925 0.1 μM): (1.3) fold
fold-reversal of drug resistance, KHOSR2 (KHOSR2 cells; PM00104, add NSC23925 0.5 μM): (5.5) fold
fold-reversal of drug resistance, KHOSR2 (KHOSR2 cells; PM00104, add NSC23925 1 μM): (17.9) fold
fold-reversal of drug resistance, KHOSR2 (KHOSR2 cells; Paclitaxel, add NSC23925 0.1 μM): (1.3) fold
fold-reversal of drug resistance, KHOSR2 (KHOSR2 cells; Paclitaxel, add NSC23925 0.5 μM): (1.8) fold
fold-reversal of drug resistance, KHOSR2 (KHOSR2 cells; Paclitaxel, add NSC23925 1 μM): (3.5) fold
Reversal of drug resistance in MCF-7 MX cells [1]: unable to reverse drug resistance
Cytotoxic effect of NSC23925 alone in parental SKOV-3 ([2]; <5-10 μM NSC23925 alone, cells lack Pgp1): no cytotoxic effect
IC50 ([2]; Homo sapiens, SKOV-3/SKOV-3TR, single agent, read-out: IC50 for NSC23925 (proliferation)): 8 µM
Effect of verapamil on the cytotoxic effect of NSC23925 ([2]; Pgp1-overexpressing SKOV-3TR cells, 72 hours, MTT): did not influence the cytotoxic effect
Doses at which NSC23925 by itself is noncytotoxic ([2]; both sensitive and resistant cell lines): up to 10 μM
Pgp1 transport substrate status ([2]; concluded from matched cell line IC50s and verapamil co-treatment): not a substrate of Pgp1
Expression level of Pgp1 [3]: not affected
